18 molecules from patent US10919896B2, “Preparation and uses of pyrimidinone derivatives” (Cancer Research Technology Limited, priority 2016, dated 2021) can be followed below.

The structures appear in SMILES notation.

Test [1] has as its system Cdc7 (pS53MCM2 levels in HCT116 cells). Briefly: Cdc7 Cell Pharmacodynamics Assay Method 1: pS53MCM2 levels in HCT116 cells, 6 hours. The format is cell-based. Particulars: Homo sapiens, HCT-116, 6 h, read-out: Biomarker Method 1 (pEC50) (converted). The gist of the method:
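HCT116 cells (wild-type p53), 20,000 per well in McCoys 5A with 10% FCS, treated with compound for 6 h at 37 °C. Lysates captured on total-MCM2 antibody and probed with anti-pMCM2 Ser53 plus HRP secondary; chemiluminescent read-out of pS53MCM2 levels.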

For another test, the target named is Cdc7/ASK (Homo sapiens, UniProt O00311). Kind of test: Cdc7 Biochemical Assay Method 2: 384 well mobility shift assay (EZ Reader II), MCM2 peptide substrate. Details: purchased. The settings on record: 12.5 μM ATP, read-out: Biochemical Method 2 (pIC50) (converted).
Chain of Cdc7/ASK (O00311 whole entry): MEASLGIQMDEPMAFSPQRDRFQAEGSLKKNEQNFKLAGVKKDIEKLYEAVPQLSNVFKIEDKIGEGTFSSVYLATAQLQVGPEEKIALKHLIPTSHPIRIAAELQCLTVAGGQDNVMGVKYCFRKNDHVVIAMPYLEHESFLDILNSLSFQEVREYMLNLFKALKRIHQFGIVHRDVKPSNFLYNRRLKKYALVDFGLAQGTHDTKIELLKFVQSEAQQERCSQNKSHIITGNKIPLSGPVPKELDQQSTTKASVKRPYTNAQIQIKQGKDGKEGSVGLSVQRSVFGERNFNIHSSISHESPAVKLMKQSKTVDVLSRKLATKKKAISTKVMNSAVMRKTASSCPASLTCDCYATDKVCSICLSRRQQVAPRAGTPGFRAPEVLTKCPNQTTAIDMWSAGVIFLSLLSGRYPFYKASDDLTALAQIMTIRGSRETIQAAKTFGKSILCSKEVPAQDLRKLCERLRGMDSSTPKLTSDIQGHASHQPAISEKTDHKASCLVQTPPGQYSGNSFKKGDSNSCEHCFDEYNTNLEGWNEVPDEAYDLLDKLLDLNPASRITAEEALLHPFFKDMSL
Chain of Cdc7/ASK (Q9UBU7 whole entry partner): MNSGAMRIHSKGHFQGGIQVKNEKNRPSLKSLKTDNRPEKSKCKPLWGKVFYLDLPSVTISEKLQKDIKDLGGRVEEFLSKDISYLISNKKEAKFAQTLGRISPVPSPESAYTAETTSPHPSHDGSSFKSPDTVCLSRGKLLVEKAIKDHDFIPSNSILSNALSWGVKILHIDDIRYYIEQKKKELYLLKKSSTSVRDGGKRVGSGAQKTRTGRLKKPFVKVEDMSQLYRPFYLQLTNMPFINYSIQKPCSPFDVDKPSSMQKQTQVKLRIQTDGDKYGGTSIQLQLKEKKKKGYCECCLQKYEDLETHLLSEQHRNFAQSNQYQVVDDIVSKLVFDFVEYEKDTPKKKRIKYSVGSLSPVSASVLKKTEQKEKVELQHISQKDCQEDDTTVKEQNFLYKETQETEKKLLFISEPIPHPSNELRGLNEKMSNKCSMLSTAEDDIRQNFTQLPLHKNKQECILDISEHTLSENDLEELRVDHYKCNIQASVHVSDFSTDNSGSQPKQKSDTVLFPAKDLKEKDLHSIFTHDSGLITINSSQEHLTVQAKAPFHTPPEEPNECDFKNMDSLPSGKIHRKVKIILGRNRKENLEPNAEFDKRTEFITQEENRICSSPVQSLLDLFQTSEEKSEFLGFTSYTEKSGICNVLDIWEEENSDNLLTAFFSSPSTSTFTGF

As to `O=c1[nH]c(-c2ccnc(F)c2)nc(N2CCNCC2)c1Cl` [Compound 360], in test [1], the EC50 is 57.5 nM.
With `C[C@@H]1CNCCN1c1nc(-c2ccnc(F)c2)[nH]c(=O)c1Cl` [Compound 323], the EC50 in test [1] was 22.4 nM. At Cdc7/ASK, the IC50 is 0.575 nM.
Consider `O=c1[nH]c(-c2ccncc2)nc(N2CCN(CC(F)F)CC2)c1Cl` [Compound 147], for which, in test [1], the EC50 is 115 nM.
For the molecule `O=c1[nH]c(-c2ccnc(F)c2)nc(N2CCN[C@@H](C(F)(F)F)C2)c1Cl` [Compound 314], in test [1], the EC50 is 12.3 nM. Besides, the IC50 at Cdc7/ASK was 0.575 nM.
With `CC(C)[C@H]1CN(c2nc(-c3ccnc(F)c3)[nH]c(=O)c2Cl)CCN1` [Compound 170], the EC50 in test [1] was 31.6 nM. In addition, on Cdc7/ASK, the IC50 is 1.17 nM.
On the same counts, the results for `NC[C@H]1CCCN(c2nc(-c3ccnc(F)c3)[nH]c(=O)c2Cl)C1` [Compound 362] are 302 nM and 0.741 nM.
For `NC[C@@H]1CCCN(c2nc(-c3ccnc(F)c3)[nH]c(=O)c2Cl)C1` [Compound 363], the EC50 in test [1] was 794 nM. Moreover, the IC50 on Cdc7/ASK was 1.78 nM.
`O=c1[nH]c(-c2ccncc2)nc(N2CCCOCC2)c1Cl` [Compound 186]: the EC50 in test [1] is 347 nM. In addition, the IC50 at Cdc7/ASK was 3.89 nM.
On to `C[C@@H]1CNCCN1c1nc(-c2ccncc2)[nH]c(=O)c1Cl` [Compound 364], for which the EC50 in test [1] was 20.4 nM. For the same molecule, the IC50 at Cdc7/ASK is 0.501 nM.
In the case of `N[C@@H]1CCCN(c2nc(-c3ccnc(F)c3)[nH]c(=O)c2Cl)C1` [Compound 319], in test [1], the EC50 is 74.1 nM. In addition, the IC50 on Cdc7/ASK was 1.51 nM.
Turning to `O=c1[nH]c(-c2ccnc(F)c2)nc(N2CCCC(F)(F)C2)c1Cl` [Compound 90, 5-chloro-4-(3,3-difluoro-1-piperidyl)-2-(2-fluoro-4-pyridyl)-1H-pyrimidin-6-one], the EC50 in test [1] was 33.1 nM.
Same read-out and setting: as for `O=c1[nH]c(-c2ccncc2)nc(N2CCN[C@H](C(F)(F)F)C2)c1Cl` [Compound 139], the figure is 324 nM.
For `CC(C)(C)[C@H]1CN(c2nc(-c3ccncc3)[nH]c(=O)c2F)CCN1` [Compound 185], the EC50 in test [1] is 85.1 nM. In addition, on Cdc7/ASK, the IC50 is 0.776 nM.
Consider `C[C@H]1CN(c2nc(-c3ccncc3)[nH]c(=O)c2Cl)CCN1` [Compound 130], for which the EC50 in test [1] is 107 nM.
For the molecule `N[C@H]1CCCN(c2nc(-c3ccnc(F)c3)[nH]c(=O)c2Cl)C1` [Compound 317], the EC50 in test [1] was 97.7 nM. Moreover, the IC50 at Cdc7/ASK was 1.02 nM.
Take `CC(C)[C@H]1CN(c2nc(-c3ccncc3)[nH]c(=O)c2F)CCN1` [Compound 308]: the EC50 in test [1] was 178 nM. In addition, at Cdc7/ASK, the IC50 was 0.912 nM.
As to `O=c1[nH]c(-c2ccncc2)nc(N2CCN[C@@H](C(F)(F)F)C2)c1Cl` [Compound 180], the EC50 in test [1] is 26.9 nM.
Still for that read-out and setting: as for `O=c1[nH]c(-c2ccnc(F)c2)nc(N2CCOCC2)c1Cl` [Compound 316], the figure is 39.8 nM.
